The values that follow come from ChEMBL document CHEMBL1144975, “Improving the selectivity of acyclic nucleoside analogues as inhibitors of human mitochondrial thymidine kinase: replacement of a triphenylmethoxy moiety with substituted amines and carboxamides” (Bioorg Med Chem Lett, 2003).

This test addresses T1, Thymidine kinase, cytosolic (Homo sapiens, UniProt P04183).
T1 sequence (P04183 whole entry): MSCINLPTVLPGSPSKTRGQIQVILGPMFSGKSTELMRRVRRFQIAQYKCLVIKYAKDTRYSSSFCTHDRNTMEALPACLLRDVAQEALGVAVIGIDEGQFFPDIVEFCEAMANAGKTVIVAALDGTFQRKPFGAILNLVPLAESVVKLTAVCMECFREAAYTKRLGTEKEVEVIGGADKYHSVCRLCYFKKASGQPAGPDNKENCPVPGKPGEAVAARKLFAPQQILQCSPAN
Put plainly: Inhibitory concentration on phosphorylation of [methyl-3H]-dTh by human Thymidine Kinase 1.

`Cc1cn(C/C=C\CN(Cc2ccccc2)Cc2ccccc2)c(=O)[nH]c1=O` gave an IC50 above 500 µM.
